Results as given in the kinase profiling compilation of Christmann-Franck et al. (2016).
pIC50: −log10 of the molar value.

Columns and labels:
FLT3 (human) = FLT3 (human) (UniProt P36888); test: KINOMEscan competition binding; settings: compound 10.0 µM
GAK (human) = GAK (human) (UniProt O14976); test: KINOMEscan competition binding; settings: compound 10.0 µM
PLK1 (human) = PLK1 (human) (UniProt P53350); test: KINOMEscan competition binding; settings: compound 10.0 µM
PLK3 (human) = PLK3 (human) (UniProt Q9H4B4); test: KINOMEscan competition binding; settings: compound 10.0 µM
Sequence of PLK3 (human) (Q9H4B4 whole entry, looked up): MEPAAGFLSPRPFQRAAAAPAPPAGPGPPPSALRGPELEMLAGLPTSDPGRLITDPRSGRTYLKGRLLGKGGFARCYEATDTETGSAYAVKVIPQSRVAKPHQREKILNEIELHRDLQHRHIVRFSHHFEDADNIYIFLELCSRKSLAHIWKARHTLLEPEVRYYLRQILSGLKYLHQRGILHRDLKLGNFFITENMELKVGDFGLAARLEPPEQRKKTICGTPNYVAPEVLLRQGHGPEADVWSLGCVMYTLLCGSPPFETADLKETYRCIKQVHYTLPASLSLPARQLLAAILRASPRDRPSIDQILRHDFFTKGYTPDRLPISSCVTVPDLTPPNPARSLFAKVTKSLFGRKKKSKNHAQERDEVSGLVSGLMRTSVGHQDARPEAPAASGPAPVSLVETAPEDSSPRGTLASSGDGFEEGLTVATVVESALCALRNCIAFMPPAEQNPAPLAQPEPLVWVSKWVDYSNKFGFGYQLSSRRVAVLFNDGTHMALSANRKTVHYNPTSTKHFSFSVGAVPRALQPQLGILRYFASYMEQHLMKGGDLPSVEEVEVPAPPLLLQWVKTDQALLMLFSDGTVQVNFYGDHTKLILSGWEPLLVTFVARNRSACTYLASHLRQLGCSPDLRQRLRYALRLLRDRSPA

PLK4 (human) = PLK4 (human) (UniProt O00444); test: KINOMEscan competition binding; settings: compound 10.0 µM
PTK2 (human) = PTK2 (human) (UniProt Q05397); test: KINOMEscan competition binding; settings: compound 10.0 µM
STK33 (human) = STK33 (human) (UniProt Q9BYT3); test: KINOMEscan competition binding; settings: compound 10.0 µM
TTK (human) = TTK (human) (UniProt P33981); test: KINOMEscan competition binding; settings: compound 10.0 µM
Sequence of TTK (human) (P33981 whole entry, looked up): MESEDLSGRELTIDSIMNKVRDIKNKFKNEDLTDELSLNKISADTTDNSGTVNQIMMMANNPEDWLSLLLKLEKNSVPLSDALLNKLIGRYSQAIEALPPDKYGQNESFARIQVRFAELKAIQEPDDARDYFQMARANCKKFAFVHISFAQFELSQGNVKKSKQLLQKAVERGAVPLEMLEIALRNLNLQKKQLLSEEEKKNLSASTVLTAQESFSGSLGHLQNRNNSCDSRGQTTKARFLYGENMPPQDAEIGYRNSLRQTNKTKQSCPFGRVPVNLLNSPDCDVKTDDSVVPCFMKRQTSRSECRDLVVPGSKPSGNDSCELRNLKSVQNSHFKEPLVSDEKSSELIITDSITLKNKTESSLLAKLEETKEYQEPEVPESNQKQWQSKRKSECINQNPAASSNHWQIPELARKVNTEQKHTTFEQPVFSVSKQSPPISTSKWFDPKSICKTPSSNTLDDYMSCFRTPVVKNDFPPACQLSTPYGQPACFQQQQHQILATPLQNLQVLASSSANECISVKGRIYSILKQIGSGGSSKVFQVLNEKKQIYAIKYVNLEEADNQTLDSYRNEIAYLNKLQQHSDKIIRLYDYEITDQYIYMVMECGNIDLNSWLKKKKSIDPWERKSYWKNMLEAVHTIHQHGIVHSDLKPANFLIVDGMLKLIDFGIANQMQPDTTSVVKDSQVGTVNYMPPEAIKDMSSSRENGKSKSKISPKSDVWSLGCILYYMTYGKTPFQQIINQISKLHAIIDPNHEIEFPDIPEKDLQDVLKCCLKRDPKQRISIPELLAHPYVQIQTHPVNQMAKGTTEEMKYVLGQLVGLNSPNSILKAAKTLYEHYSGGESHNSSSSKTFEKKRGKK

ACVR2B (human) = ACVR2B (human) (UniProt Q13705); test: KINOMEscan competition binding; settings: compound 10.0 µM
CDK16 (human) = CDK16 (human) (UniProt Q00536); test: KINOMEscan competition binding; settings: compound 10.0 µM
CLK1 (human) = CLK1 (human) (UniProt P49759); test: KINOMEscan competition binding; settings: compound 10.0 µM
CLK4 (human) = CLK4 (human) (UniProt Q9HAZ1); test: KINOMEscan competition binding; settings: compound 10.0 µM
DAPK2 (human) = DAPK2 (human) (UniProt Q9UIK4); test: KINOMEscan competition binding; settings: compound 10.0 µM
GSK3A (human) = GSK3A (human) (UniProt P49840); test: KINOMEscan competition binding; settings: compound 10.0 µM
Sequence of GSK3A (human) (P49840 whole entry, looked up): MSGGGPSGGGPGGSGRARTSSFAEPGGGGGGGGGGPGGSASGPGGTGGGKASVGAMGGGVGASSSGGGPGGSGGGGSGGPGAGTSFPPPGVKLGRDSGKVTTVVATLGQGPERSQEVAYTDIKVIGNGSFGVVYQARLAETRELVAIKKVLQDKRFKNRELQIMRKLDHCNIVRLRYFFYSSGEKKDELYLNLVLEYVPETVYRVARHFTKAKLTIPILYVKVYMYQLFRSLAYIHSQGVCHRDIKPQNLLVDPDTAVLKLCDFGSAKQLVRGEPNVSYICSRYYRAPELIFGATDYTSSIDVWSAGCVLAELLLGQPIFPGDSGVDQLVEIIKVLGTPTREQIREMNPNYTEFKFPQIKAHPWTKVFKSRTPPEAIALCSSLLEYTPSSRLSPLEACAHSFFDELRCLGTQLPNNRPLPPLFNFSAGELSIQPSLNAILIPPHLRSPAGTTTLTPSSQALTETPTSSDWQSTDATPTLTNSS

HIPK1 (human) = HIPK1 (human) (UniProt Q86Z02); test: KINOMEscan competition binding; settings: compound 10.0 µM
MAP2K3 (human) = MAP2K3 (human) (UniProt P46734); test: KINOMEscan competition binding; settings: compound 10.0 µM
Sequence of MAP2K3 (human) (P46734 whole entry, looked up): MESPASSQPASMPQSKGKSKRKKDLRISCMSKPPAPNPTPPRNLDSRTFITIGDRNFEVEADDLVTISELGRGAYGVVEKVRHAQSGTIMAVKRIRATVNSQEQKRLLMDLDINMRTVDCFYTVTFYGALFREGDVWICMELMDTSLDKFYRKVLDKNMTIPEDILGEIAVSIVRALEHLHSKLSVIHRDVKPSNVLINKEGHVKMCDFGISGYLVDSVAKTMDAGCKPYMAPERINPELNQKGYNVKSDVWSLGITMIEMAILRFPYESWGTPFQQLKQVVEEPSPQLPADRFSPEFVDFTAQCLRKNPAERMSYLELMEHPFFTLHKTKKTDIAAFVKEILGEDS

MAPK15 (human) = MAPK15 (human) (UniProt Q8TD08); test: KINOMEscan competition binding; settings: compound 10.0 µM
PIM1 (human) [1] = target: PIM1 (human) (UniProt P11309); test: KINOMEscan competition binding; settings: compound 10.0 µM
Sequence of PIM1 (human) (P11309 whole entry, looked up): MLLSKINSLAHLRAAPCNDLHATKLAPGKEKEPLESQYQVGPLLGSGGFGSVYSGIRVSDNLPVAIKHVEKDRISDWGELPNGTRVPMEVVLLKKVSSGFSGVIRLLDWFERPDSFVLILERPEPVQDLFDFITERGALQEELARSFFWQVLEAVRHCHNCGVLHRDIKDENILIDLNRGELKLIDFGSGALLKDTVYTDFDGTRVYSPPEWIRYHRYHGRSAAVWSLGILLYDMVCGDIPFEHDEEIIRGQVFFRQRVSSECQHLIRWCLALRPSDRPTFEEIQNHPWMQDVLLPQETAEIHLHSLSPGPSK

PIM2 (human) [2] = target: PIM2 (human) (UniProt Q9P1W9); test: KINOMEscan competition binding; settings: compound 10.0 µM
Sequence of PIM2 (human) (Q9P1W9 whole entry, looked up): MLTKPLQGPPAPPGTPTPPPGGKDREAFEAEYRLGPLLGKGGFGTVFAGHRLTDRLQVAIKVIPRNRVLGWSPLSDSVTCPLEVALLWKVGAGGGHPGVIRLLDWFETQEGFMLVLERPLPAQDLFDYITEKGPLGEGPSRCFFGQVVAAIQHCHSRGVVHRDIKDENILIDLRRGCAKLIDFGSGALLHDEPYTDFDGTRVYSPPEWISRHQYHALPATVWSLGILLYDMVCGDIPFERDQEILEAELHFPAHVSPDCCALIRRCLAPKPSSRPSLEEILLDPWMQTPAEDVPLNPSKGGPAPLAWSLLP

PIM3 (human) = PIM3 (human) (UniProt Q86V86); test: KINOMEscan competition binding; settings: compound 10.0 µM
STK17A (human) = STK17A (human) (UniProt Q9UEE5); test: KINOMEscan competition binding; settings: compound 10.0 µM
STK17B (human) = STK17B (human) (UniProt O94768); test: KINOMEscan competition binding; settings: compound 10.0 µM
TAOK1 (human) = TAOK1 (human) (UniProt Q7L7X3); test: KINOMEscan competition binding; settings: compound 10.0 µM
TGFBR2 (human) = TGFBR2 (human) (UniProt P37173); test: KINOMEscan competition binding; settings: compound 10.0 µM
PIM1 (human) [3] = target: PIM1 (human) (UniProt P11309); test: SelectScreen, TR FRET
PIM2 (human) [4] = target: PIM2 (human) (UniProt Q9P1W9); test: SelectScreen, TR FRET
MAPK7 (human) = MAPK7 (human) (UniProt Q13164); test: KINOMEscan competition binding; settings: compound 10.0 µM
MYLK (human) = MYLK (human) (UniProt Q15746); test: KINOMEscan competition binding; settings: compound 10.0 µM
RPS6KA4 KD2 (human) = RPS6KA4 KD2 (human) (UniProt O75676); test: KINOMEscan competition binding; settings: compound 10.0 µM
Sequence of RPS6KA4 KD2 (human) (O75676 whole entry, looked up): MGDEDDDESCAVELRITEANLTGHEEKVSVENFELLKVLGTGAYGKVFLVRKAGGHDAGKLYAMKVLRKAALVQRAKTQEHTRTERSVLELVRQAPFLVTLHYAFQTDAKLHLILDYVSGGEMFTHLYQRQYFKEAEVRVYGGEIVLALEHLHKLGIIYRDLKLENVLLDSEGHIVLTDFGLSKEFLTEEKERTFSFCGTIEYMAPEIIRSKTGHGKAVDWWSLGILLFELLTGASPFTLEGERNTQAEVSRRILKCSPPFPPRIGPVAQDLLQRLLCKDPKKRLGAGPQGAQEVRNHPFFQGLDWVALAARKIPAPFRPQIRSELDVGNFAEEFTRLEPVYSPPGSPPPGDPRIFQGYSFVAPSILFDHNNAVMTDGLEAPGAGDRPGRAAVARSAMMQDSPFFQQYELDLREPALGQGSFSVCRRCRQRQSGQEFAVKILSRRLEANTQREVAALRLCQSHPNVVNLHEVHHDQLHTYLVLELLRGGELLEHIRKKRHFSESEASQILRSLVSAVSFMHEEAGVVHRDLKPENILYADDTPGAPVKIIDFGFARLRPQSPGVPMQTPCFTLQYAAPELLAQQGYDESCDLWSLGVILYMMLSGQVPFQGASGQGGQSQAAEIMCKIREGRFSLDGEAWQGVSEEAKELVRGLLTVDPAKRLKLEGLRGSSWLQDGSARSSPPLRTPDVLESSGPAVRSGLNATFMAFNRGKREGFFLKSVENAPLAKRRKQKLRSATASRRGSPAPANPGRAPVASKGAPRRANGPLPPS

ULK2 (human) = ULK2 (human) (UniProt Q8IYT8); test: KINOMEscan competition binding; settings: compound 10.0 µM

Sequence of PLK1 (human) (P53350 whole entry, looked up): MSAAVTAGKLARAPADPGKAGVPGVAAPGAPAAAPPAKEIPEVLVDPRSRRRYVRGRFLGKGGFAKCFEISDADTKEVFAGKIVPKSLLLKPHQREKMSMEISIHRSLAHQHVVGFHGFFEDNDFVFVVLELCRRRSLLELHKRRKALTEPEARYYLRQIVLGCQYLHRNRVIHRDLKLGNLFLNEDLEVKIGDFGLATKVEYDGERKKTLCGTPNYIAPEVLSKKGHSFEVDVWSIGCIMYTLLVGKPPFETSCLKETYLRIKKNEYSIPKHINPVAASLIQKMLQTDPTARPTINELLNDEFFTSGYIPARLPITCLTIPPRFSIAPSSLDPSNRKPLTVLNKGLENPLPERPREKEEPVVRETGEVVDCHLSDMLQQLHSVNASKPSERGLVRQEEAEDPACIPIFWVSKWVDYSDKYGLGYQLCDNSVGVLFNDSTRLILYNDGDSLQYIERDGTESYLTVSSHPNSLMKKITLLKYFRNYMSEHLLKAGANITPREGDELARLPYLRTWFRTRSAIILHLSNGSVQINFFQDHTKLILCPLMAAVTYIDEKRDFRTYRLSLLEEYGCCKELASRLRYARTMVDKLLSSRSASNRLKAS

CCOc1cc(N2CCC(O)CC2)ccc1Nc1ncc2c(n1)N(C1CCCC1)CCC(=O)N2C
kinase still bound, per cent of control (FLT3 (human)): 0% | kinase still bound, per cent of control (GAK (human)): 2% | kinase still bound, per cent of control (PLK1 (human)): 4.3% | kinase still bound, per cent of control (PLK3 (human)): 15% | kinase still bound, per cent of control (PLK4 (human)): 27% | kinase still bound, per cent of control (PTK2 (human)): 24% | kinase still bound, per cent of control (STK33 (human)): 32% | kinase still bound, per cent of control (TTK (human)): 3.2%

N=C1NC(=O)/C(=C/c2ccc(-c3ccc(Cl)cc3)o2)S1
kinase still bound, per cent of control (ACVR2B (human)): 25% | kinase still bound, per cent of control (CDK16 (human)): 14% | kinase still bound, per cent of control (CLK1 (human)): 34% | kinase still bound, per cent of control (CLK4 (human)): 30% | kinase still bound, per cent of control (DAPK2 (human)): 33% | kinase still bound, per cent of control (GSK3A (human)): 7.8% | kinase still bound, per cent of control (HIPK1 (human)): 0.2% | kinase still bound, per cent of control (MAP2K3 (human)): 5.6% | kinase still bound, per cent of control (MAPK15 (human)): 1.4% | kinase still bound, per cent of control (PIM1 (human) [1]): 9.2% | kinase still bound, per cent of control (PIM2 (human) [2]): 1.4% | kinase still bound, per cent of control (PIM3 (human)): 3.9% | kinase still bound, per cent of control (STK17A (human)): 1.8% | kinase still bound, per cent of control (STK17B (human)): 2.1% | kinase still bound, per cent of control (TAOK1 (human)): 11% | kinase still bound, per cent of control (TGFBR2 (human)): 10% | pIC50 (PIM1 (human) [3]): 6.05 | pIC50 (PIM2 (human) [4]): 5.11

CC(C)Oc1cc(C(=O)N2CCC(N3CCN(C)CC3)CC2)ccc1Nc1ncc2c(n1)N(C1CCCC1)[C@@H]1CCC[C@@H]1C(=O)N2C
kinase still bound, per cent of control (MAPK7 (human)): 4.8% | kinase still bound, per cent of control (MYLK (human)): 18% | kinase still bound, per cent of control (PLK1 (human)): 24%

NC1=N/C(=C\c2ccc(-c3ccc(S(N)(=O)=O)cc3)o2)C(=O)N1
kinase still bound, per cent of control (MAP2K3 (human)): 13% | kinase still bound, per cent of control (PIM1 (human) [1]): 9.5% | kinase still bound, per cent of control (PIM3 (human)): 6% | kinase still bound, per cent of control (RPS6KA4 KD2 (human)): 14%

CN1C(=N)NC(=O)/C1=C/c1ccc(-c2ccc(S(N)(=O)=O)cc2)o1
kinase still bound, per cent of control (MAP2K3 (human)): 11% | kinase still bound, per cent of control (PIM1 (human) [1]): 21% | kinase still bound, per cent of control (PIM3 (human)): 7.4%

N=C1NC(=O)/C(=C/c2ccc(-c3ccc(C(=O)Nc4ccc(N5CCNCC5)cc4)cc3)o2)S1
pIC50 (PIM1 (human) [3]): 6.82 | pIC50 (PIM2 (human) [4]): 6.67

Cc1cn(-c2cc(NC(=O)c3cccc4cc(-c5ccc(/C=C6\SC(=O)NC6=O)o5)ccc34)cc(C(F)(F)F)c2)cn1
pIC50 (PIM1 (human) [3]): 5.25 | pIC50 (PIM2 (human) [4]): 5.84

NS(=O)(=O)c1ccc(-c2ccc(C=C3C(=O)c4ccccc4C3=O)o2)cc1
kinase still bound, per cent of control (ULK2 (human)): 22%

CC(C)Oc1cc(N2CCC(O)CC2)ccc1Nc1ncc2c(n1)N1CCC[C@H]1CC(=O)N2C
kinase still bound, per cent of control (PLK1 (human)): 21% | kinase still bound, per cent of control (PLK3 (human)): 16% | kinase still bound, per cent of control (RPS6KA4 KD2 (human)): 32% | kinase still bound, per cent of control (TTK (human)): 5%

CN1C(=N)NC(=O)/C1=C/c1ccc(-c2cncc3ccccc23)o1
pIC50 (PIM1 (human) [3]): 5.45 | pIC50 (PIM2 (human) [4]): 5.51

N=C1NC(=O)/C(=C/c2ccc(-c3cccc4ccccc34)o2)S1
pIC50 (PIM1 (human) [3]): 5.66 | pIC50 (PIM2 (human) [4]): 5.92

N=C1NC(=O)/C(=C/c2ccc(-c3ccc4c(C(=O)Nc5cccc(C(F)(F)F)c5)cccc4c3)o2)S1
pIC50 (PIM1 (human) [3]): < 5.00 | pIC50 (PIM2 (human) [4]): 5.47

CN1C(=N)NC(=O)/C1=C/c1ccc(-c2cccc3ccccc23)o1
kinase still bound, per cent of control (GSK3A (human)): 14% | kinase still bound, per cent of control (PIM1 (human) [1]): 27% | kinase still bound, per cent of control (PIM2 (human) [2]): 2.6% | kinase still bound, per cent of control (PIM3 (human)): 9.6% | kinase still bound, per cent of control (STK17A (human)): 33% | kinase still bound, per cent of control (STK17B (human)): 32% | pIC50 (PIM1 (human) [3]): < 5.00 | pIC50 (PIM2 (human) [4]): 5.04
